What was measured:
Conditions in all cases: 48 h
SEM cells [1] = assay: cell viability relative to DMSO control; higher = less cytotoxic
Procedure, shortened: (§1)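 Leukemia cells (NOMO1 or SEM, 500 cells/well; P12-Ichikawa, 1000 cells/well) were seeded in 5 μl in 1536-well plates after at least four passages of adaptation to each medium. They received library compounds in DMSO by pin dosing, 11 threefold points from 47 μM to 0.79 nM. Luminescence with CellTiter-Glo One was read after 48 h at 37°C. Viability is stated per plate relative to DMSO wells, with cell-free wells as background.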

P12-Ichikawa [2] = assay: as above
Procedure, shortened: as §1

NOMO1 [3] = assay: AUC of viability dose-response curve (% viability x log10 dose units); higher = less sensitive
Procedure, shortened: (§2)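 Leukemia cells adapted to each medium (500 or 1000 cells/well, 1536-well plates) were exposed to library compounds in DMSO for 48 h at 37°C at 11 threefold doses, 47 μM to 0.79 nM. Luminescence by CellTiter-Glo One was normalised per plate to DMSO and cell-free wells, then fitted with a four-parameter log-logistic curve on log10 dose. Curves above full viability were scaled and quality-control failures removed before area under the curve was integrated by trapezoidal rule.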

SEM cells [4] = assay: as above
Procedure, shortened: as §2

P12-Ichikawa [5] = assay: as above
Procedure, shortened: as §2

NOMO1 [6] = assay: cell viability relative to DMSO control; higher = less cytotoxic
Procedure, shortened: as §1

CC(=O)O[C@H]1C[C@@H]2CC[C@@H]3[C@H](CC[C@@]4(C)[C@H]3C[C@H]([N+]3(C)CCCCC3)[C@@H]4OC(C)=O)[C@@]2(C)C[C@@H]1[N+]1(C)CCCCC1
Conditions | cell viability [%]
P12-Ichikawa [2], RPMI 5 mM glucose + 10% dialyzed FBS, 0.000781 µM | 123
P12-Ichikawa [2], RPMI 5 mM glucose + 10% dialyzed FBS, 0.00234 µM | 134
P12-Ichikawa [2], RPMI 5 mM glucose + 10% dialyzed FBS, 0.00702 µM | 121
P12-Ichikawa [2], RPMI 5 mM glucose + 10% dialyzed FBS, 0.0211 µM | 124
P12-Ichikawa [2], RPMI 5 mM glucose + 10% dialyzed FBS, 0.0632 µM | 132
P12-Ichikawa [2], RPMI 5 mM glucose + 10% dialyzed FBS, 0.19 µM | 125
P12-Ichikawa [2], RPMI 5 mM glucose + 10% dialyzed FBS, 0.569 µM | 127
P12-Ichikawa [2], RPMI 5 mM glucose + 10% dialyzed FBS, 1.71 µM | 117
P12-Ichikawa [2], RPMI 5 mM glucose + 10% dialyzed FBS, 5.12 µM | 125
P12-Ichikawa [2], RPMI 5 mM glucose + 10% dialyzed FBS, 15.4 µM | 117
P12-Ichikawa [2], RPMI 5 mM glucose + 10% dialyzed FBS, 46.1 µM | 113
SEM cells [1], HPLM + 10% dialyzed FBS, 0.000781 µM | 110
SEM cells [1], HPLM + 10% dialyzed FBS, 0.00234 µM | 110
SEM cells [1], HPLM + 10% dialyzed FBS, 0.00702 µM | 119
SEM cells [1], HPLM + 10% dialyzed FBS, 0.0211 µM | 126
SEM cells [1], HPLM + 10% dialyzed FBS, 0.0632 µM | 108
SEM cells [1], HPLM + 10% dialyzed FBS, 0.19 µM | 108
SEM cells [1], HPLM + 10% dialyzed FBS, 0.569 µM | 115
SEM cells [1], HPLM + 10% dialyzed FBS, 1.71 µM | 121
SEM cells [1], HPLM + 10% dialyzed FBS, 5.12 µM | 109
SEM cells [1], HPLM + 10% dialyzed FBS, 15.4 µM | 110
SEM cells [1], HPLM + 10% dialyzed FBS, 46.1 µM | 117

AUC of viability dose-response curve
Conditions | NOMO1 [3] | P12-Ichikawa [5] | SEM cells [4]
HPLM + 10% dialyzed FBS | 459 | 464 | 477
RPMI 5 mM glucose + 10% FBS | 466 | 457 | 438
RPMI 5 mM glucose + 10% dialyzed FBS | 472 | 465 | 465

CC[C@H](CC#N)OC(=O)N[C@@H](C)c1cccc(NC(=O)Nc2ccc(-c3cnco3)c(OC)c2)c1
cell viability [%]
Conditions | NOMO1 [6] | P12-Ichikawa [2] | SEM cells [1]
HPLM + 10% dialyzed FBS, 0.000781 µM | 117 | 117 | 105
HPLM + 10% dialyzed FBS, 0.00234 µM | 114 | 112 | 98.7
HPLM + 10% dialyzed FBS, 0.00702 µM | 119 | 120 | 111
HPLM + 10% dialyzed FBS, 0.0211 µM | 105 | – | 119
HPLM + 10% dialyzed FBS, 0.0632 µM | 127 | 111 | 118
HPLM + 10% dialyzed FBS, 0.19 µM | 111 | 107 | 86.2
HPLM + 10% dialyzed FBS, 0.569 µM | 98.2 | 106 | 71.8
HPLM + 10% dialyzed FBS, 1.71 µM | 76.4 | 74.9 | 74.8
HPLM + 10% dialyzed FBS, 5.12 µM | 38.9 | 49.8 | 44.5
HPLM + 10% dialyzed FBS, 15.4 µM | 32.1 | 49.1 | 30.3
HPLM + 10% dialyzed FBS, 46.1 µM | 35.1 | 40.6 | 31.6
RPMI 5 mM glucose + 10% FBS, 0.000781 µM | 111 | 119 | 108
RPMI 5 mM glucose + 10% FBS, 0.00234 µM | 104 | 121 | 112
RPMI 5 mM glucose + 10% FBS, 0.00702 µM | 121 | 118 | 114
RPMI 5 mM glucose + 10% FBS, 0.0211 µM | 107 | 117 | 118
RPMI 5 mM glucose + 10% FBS, 0.0632 µM | 114 | 132 | 112
RPMI 5 mM glucose + 10% FBS, 0.19 µM | 105 | 113 | 96
RPMI 5 mM glucose + 10% FBS, 0.569 µM | 113 | 97.2 | 76.3
RPMI 5 mM glucose + 10% FBS, 1.71 µM | 66.8 | 65.9 | 68
RPMI 5 mM glucose + 10% FBS, 5.12 µM | 38.3 | 44.3 | 47.7
RPMI 5 mM glucose + 10% FBS, 15.4 µM | 25.9 | 33.4 | 30.2
RPMI 5 mM glucose + 10% FBS, 46.1 µM | 22.3 | 30.4 | 18.1
RPMI 5 mM glucose + 10% dialyzed FBS, 0.000781 µM | 117 | 112 | 107
RPMI 5 mM glucose + 10% dialyzed FBS, 0.00234 µM | 106 | 120 | 110
RPMI 5 mM glucose + 10% dialyzed FBS, 0.00702 µM | 115 | 111 | 124
RPMI 5 mM glucose + 10% dialyzed FBS, 0.0211 µM | 120 | 120 | 105
RPMI 5 mM glucose + 10% dialyzed FBS, 0.0632 µM | 111 | 121 | 105
RPMI 5 mM glucose + 10% dialyzed FBS, 0.19 µM | 112 | 110 | 112
RPMI 5 mM glucose + 10% dialyzed FBS, 0.569 µM | 91 | 90.4 | 100
RPMI 5 mM glucose + 10% dialyzed FBS, 1.71 µM | 84 | 59.1 | 99.6
RPMI 5 mM glucose + 10% dialyzed FBS, 5.12 µM | 51.9 | 42.3 | 67.9
RPMI 5 mM glucose + 10% dialyzed FBS, 15.4 µM | 39.4 | 40.2 | 43.3
RPMI 5 mM glucose + 10% dialyzed FBS, 46.1 µM | 35.8 | 40.6 | 38.7

AUC of viability dose-response curve
Conditions | NOMO1 [3] | P12-Ichikawa [5] | SEM cells [4]
HPLM + 10% dialyzed FBS | 371 | 384 | 356
RPMI 5 mM glucose + 10% FBS | 368 | 359 | 347
RPMI 5 mM glucose + 10% dialyzed FBS | 379 | 363 | 408

Cc1ccccc1C(C(=O)NC1CCCCC1)N(C(=O)Cn1ccnc1C)c1cccc(F)c1 (stereo unspecified)
cell viability [%]
Conditions | NOMO1 [6] | P12-Ichikawa [2] | SEM cells [1]
HPLM + 10% dialyzed FBS, 0.000781 µM | 96.4 | 117 | 109
HPLM + 10% dialyzed FBS, 0.00234 µM | 93.1 | 114 | 31
HPLM + 10% dialyzed FBS, 0.00702 µM | 122 | 115 | 118
HPLM + 10% dialyzed FBS, 0.0211 µM | 119 | 105 | 111
HPLM + 10% dialyzed FBS, 0.0632 µM | 123 | 105 | 109
HPLM + 10% dialyzed FBS, 0.19 µM | 111 | 104 | 130
HPLM + 10% dialyzed FBS, 0.569 µM | 108 | 109 | 127
HPLM + 10% dialyzed FBS, 1.71 µM | 90 | 104 | 124
HPLM + 10% dialyzed FBS, 5.12 µM | 100 | 104 | 114
HPLM + 10% dialyzed FBS, 15.4 µM | 99.2 | 102 | 100
HPLM + 10% dialyzed FBS, 46.1 µM | 89.4 | 102 | 92.7
RPMI 5 mM glucose + 10% FBS, 0.000781 µM | 88.6 | 100 | 112
RPMI 5 mM glucose + 10% FBS, 0.00234 µM | 93.9 | 113 | 108
RPMI 5 mM glucose + 10% FBS, 0.00702 µM | 102 | 105 | 96.9
RPMI 5 mM glucose + 10% FBS, 0.0211 µM | 91.9 | 106 | 103
RPMI 5 mM glucose + 10% FBS, 0.0632 µM | 93.9 | 105 | 98.4
RPMI 5 mM glucose + 10% FBS, 0.19 µM | 109 | 101 | 114
RPMI 5 mM glucose + 10% FBS, 0.569 µM | 106 | 103 | 112
RPMI 5 mM glucose + 10% FBS, 1.71 µM | 91.7 | 102 | 121
RPMI 5 mM glucose + 10% FBS, 5.12 µM | 90.7 | 93.1 | 110
RPMI 5 mM glucose + 10% FBS, 15.4 µM | 86 | 102 | 84.1
RPMI 5 mM glucose + 10% FBS, 46.1 µM | 97.3 | 97.1 | 88.9
RPMI 5 mM glucose + 10% dialyzed FBS, 0.000781 µM | 104 | 96.2 | 84.5
RPMI 5 mM glucose + 10% dialyzed FBS, 0.00234 µM | 85.9 | 103 | 27.9
RPMI 5 mM glucose + 10% dialyzed FBS, 0.00702 µM | 104 | 104 | 100
RPMI 5 mM glucose + 10% dialyzed FBS, 0.0211 µM | 106 | 104 | 105
RPMI 5 mM glucose + 10% dialyzed FBS, 0.0632 µM | 99.1 | 102 | 102
RPMI 5 mM glucose + 10% dialyzed FBS, 0.19 µM | 116 | 100 | 88.5
RPMI 5 mM glucose + 10% dialyzed FBS, 0.569 µM | 100 | 98.7 | 110
RPMI 5 mM glucose + 10% dialyzed FBS, 1.71 µM | 91 | 97.9 | 95.2
RPMI 5 mM glucose + 10% dialyzed FBS, 5.12 µM | 91.4 | 95.2 | 97.4
RPMI 5 mM glucose + 10% dialyzed FBS, 15.4 µM | 93.3 | 93.1 | 93.6
RPMI 5 mM glucose + 10% dialyzed FBS, 46.1 µM | 80.7 | 97.3 | 90.6

AUC of viability dose-response curve
Conditions | NOMO1 [3] | P12-Ichikawa [5] | SEM cells [4]
HPLM + 10% dialyzed FBS | 452 | 442 | 449
RPMI 5 mM glucose + 10% FBS | 456 | 461 | 462
RPMI 5 mM glucose + 10% dialyzed FBS | 455 | 466 | 438
